Measured values reported in ChEMBL document CHEMBL5291721, “A preclinical secondary pharmacology resource illuminates target-adverse drug reaction associations of marketed drugs” (Nat Commun, 2023).

How the values were obtained:
[1] = molecular target: 3',5'-cyclic-AMP phosphodiesterase 4D (Homo sapiens, UniProt Q08499); type: functional
[2] = molecular target: T1, Prostaglandin G/H synthase 1 (Rattus norvegicus, UniProt Q63921); type: functional
T1 sequence (Q63921 whole entry): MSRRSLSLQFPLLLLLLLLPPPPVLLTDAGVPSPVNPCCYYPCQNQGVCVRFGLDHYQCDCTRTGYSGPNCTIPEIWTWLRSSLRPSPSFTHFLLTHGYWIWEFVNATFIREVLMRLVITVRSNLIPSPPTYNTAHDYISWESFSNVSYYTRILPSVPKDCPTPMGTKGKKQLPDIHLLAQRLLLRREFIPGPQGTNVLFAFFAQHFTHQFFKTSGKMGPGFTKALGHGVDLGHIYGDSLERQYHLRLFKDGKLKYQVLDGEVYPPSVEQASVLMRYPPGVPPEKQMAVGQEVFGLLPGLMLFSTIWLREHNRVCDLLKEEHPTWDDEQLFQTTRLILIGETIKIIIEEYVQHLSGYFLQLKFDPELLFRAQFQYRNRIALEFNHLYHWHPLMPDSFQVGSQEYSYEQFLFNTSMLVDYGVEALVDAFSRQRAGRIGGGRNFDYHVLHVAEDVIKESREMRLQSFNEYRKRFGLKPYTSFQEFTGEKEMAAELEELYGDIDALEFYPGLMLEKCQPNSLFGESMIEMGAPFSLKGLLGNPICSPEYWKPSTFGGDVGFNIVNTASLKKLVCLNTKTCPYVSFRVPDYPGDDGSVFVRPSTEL

Adenosine receptor A3 = molecular target: T2, Adenosine receptor A3 (Homo sapiens, UniProt P0DMS8)
T2 sequence (P0DMS8 whole entry): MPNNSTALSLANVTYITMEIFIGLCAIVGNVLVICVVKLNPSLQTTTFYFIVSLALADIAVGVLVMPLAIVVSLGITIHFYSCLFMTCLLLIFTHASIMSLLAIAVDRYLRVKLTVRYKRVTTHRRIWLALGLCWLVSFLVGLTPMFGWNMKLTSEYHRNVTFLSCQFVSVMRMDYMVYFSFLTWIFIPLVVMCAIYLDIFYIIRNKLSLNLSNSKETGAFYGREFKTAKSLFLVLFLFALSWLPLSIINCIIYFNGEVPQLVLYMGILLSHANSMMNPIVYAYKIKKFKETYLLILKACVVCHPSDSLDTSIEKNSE

[3] = molecular target: T3, 5-hydroxytryptamine receptor 2C (Homo sapiens, UniProt P28335)
T3 sequence (P28335 whole entry): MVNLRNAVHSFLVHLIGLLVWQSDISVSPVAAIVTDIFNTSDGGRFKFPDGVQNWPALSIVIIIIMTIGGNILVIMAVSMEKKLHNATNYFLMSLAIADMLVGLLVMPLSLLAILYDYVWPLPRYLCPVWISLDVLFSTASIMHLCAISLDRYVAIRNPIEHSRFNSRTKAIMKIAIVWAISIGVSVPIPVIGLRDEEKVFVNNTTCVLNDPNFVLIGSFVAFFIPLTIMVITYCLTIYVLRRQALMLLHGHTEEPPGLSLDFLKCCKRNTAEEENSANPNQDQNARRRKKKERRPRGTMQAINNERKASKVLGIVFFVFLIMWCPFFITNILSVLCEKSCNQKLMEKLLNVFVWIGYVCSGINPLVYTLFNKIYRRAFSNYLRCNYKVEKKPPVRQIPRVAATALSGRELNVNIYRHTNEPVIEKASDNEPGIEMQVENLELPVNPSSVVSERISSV

[4] = molecular target: Neuronal acetylcholine receptor subunit alpha-4 (Homo sapiens, UniProt P43681)
[5] = molecular target: T4, 5-hydroxytryptamine receptor 1A (Homo sapiens, UniProt P08908); type: functional, cell-based
T4 sequence (P08908 whole entry): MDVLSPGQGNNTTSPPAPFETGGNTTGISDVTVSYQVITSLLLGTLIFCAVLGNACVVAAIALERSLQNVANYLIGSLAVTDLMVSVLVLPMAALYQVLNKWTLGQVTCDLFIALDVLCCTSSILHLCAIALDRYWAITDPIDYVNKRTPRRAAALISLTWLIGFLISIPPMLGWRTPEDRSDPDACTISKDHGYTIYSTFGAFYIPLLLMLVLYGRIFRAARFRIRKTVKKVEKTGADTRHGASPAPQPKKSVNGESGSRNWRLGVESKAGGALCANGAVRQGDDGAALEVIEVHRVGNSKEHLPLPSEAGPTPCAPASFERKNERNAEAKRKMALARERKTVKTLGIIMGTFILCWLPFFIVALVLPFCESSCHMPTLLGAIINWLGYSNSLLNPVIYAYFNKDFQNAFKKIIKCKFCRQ

[6] = molecular target: T5, 5-hydroxytryptamine receptor 3A (Homo sapiens, UniProt P46098); type: functional
T5 sequence (P46098 whole entry): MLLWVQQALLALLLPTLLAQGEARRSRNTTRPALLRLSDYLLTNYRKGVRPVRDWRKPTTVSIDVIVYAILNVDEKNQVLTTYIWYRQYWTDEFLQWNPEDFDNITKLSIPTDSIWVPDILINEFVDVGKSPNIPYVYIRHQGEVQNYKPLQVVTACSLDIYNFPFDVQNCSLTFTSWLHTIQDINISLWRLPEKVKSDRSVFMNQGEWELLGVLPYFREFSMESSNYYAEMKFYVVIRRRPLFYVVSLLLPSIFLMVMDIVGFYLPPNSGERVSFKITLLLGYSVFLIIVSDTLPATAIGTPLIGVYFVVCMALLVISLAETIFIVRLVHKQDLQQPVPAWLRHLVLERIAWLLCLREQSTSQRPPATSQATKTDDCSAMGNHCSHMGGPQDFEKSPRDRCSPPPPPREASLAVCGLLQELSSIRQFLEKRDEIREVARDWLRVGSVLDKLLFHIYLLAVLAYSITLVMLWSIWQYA
Note: assay procedure not described here.

Chain of 3',5'-cyclic-AMP phosphodiesterase 4D (Q08499 whole entry): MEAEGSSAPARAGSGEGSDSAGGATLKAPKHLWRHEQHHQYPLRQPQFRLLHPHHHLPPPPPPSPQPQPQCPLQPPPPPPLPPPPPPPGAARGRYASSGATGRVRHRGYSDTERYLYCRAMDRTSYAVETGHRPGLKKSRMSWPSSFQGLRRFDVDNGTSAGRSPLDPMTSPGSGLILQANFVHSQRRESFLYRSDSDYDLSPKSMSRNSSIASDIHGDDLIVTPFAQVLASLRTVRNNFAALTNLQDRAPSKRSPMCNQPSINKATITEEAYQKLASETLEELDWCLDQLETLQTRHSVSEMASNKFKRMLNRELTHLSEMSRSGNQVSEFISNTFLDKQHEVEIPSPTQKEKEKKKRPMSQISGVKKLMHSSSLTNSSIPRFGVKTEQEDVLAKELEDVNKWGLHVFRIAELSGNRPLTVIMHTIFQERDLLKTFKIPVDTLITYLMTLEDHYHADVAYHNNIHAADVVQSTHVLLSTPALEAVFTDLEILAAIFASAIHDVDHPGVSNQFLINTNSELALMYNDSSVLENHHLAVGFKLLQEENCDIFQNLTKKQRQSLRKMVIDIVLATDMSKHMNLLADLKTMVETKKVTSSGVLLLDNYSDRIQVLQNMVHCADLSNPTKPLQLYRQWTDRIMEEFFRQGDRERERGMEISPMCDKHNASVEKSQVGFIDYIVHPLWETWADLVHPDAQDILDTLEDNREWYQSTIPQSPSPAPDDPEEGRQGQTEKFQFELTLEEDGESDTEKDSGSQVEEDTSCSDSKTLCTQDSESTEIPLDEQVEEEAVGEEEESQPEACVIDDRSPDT
Chain of Neuronal acetylcholine receptor subunit alpha-4 (P43681 whole entry): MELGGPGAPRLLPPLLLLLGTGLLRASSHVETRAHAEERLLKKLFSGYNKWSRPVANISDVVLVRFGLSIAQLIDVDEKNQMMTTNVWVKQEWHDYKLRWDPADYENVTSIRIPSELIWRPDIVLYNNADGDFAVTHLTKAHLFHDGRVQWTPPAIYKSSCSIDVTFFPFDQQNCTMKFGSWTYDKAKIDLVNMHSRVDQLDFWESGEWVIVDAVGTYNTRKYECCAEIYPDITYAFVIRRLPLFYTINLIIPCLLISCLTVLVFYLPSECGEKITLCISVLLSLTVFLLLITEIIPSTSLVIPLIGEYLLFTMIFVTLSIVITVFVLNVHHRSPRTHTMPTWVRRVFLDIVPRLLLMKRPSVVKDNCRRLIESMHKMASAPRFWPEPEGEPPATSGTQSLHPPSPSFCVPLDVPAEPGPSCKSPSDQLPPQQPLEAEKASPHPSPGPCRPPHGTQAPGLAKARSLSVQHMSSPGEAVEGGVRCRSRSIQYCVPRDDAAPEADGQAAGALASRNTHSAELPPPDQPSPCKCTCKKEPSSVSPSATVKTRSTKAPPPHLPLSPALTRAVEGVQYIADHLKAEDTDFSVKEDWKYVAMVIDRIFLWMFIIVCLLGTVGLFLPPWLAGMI

Row | Compound | AC50 [1] | AC50 [2] | AC50 (Adenosine receptor A3) | AC50 [3] | AC50 [4] | AC50 [5] | AC50 [6]
1 | Nc1ncn([C@H]2C[C@H](O)[C@@H](CO)O2)c(=O)n1 [DECITABINE] | > 30 µM | > 30 µM | > 30 µM | > 30 µM | > 30 µM | > 30 µM | > 30 µM
2 | CC(C)(C)C(=O)OCC(=O)[C@H]1CC[C@H]2[C@@H]3CCC4=CC(=O)CC[C@]4(C)[C@H]3CC[C@]12C [DESOXYCORTICOSTERONE PIVALATE] | > 30 µM | > 10 µM | > 10 µM | > 30 µM | > 10 µM | > 10 µM | > 30 µM
3 | CC(CCc1ccc(O)cc1)NCCc1ccc(O)c(O)c1 (stereo unspecified) [DOBUTAMINE] | > 30 µM | 5.31 µM | 22.9 µM | > 30 µM | > 30 µM | > 30 µM | 27 µM
4 | CCOC(=O)c1cncn1[C@H](C)c1ccccc1 [ETOMIDATE] | > 30 µM | > 10 µM | > 10 µM | > 30 µM | > 10 µM | > 10 µM | –
5 | CC(C(=O)O)c1ccc(-c2ccccc2)c(F)c1 (stereo unspecified) [FLURBIPROFEN] | > 30 µM | 11 µM | > 10 µM | 2.6 µM | > 10 µM | > 10 µM | > 10 µM
6 | C[C@]12CCC(=O)C(O)=C1CC[C@@H]1[C@@H]2CC[C@]2(C)C(=O)CC[C@@H]12 [FORMESTANE] | > 30 µM | > 30 µM | > 30 µM | > 30 µM | > 30 µM | > 30 µM | > 30 µM
7 | C[C@]12CC[C@@H]3c4ccc(O)cc4C[C@@H](CCCCCCCCC[S+]([O-])CCCC(F)(F)C(F)(F)F)[C@H]3[C@@H]1CC[C@@H]2O (stereo partly specified) [FULVESTRANT] | > 30 µM | > 30 µM | > 30 µM | > 30 µM | > 30 µM | > 30 µM | > 30 µM
8 | Cc1cnc(C(=O)NCCc2ccc(S(=O)(=O)NC(=O)NC3CCCCC3)cc2)cn1 [GLIPIZIDE] | > 30 µM | – | > 30 µM | > 30 µM | > 10 µM | > 10 µM | > 10 µM
9 | CCC1(c2ccccc2)CCC(=O)NC1=O (stereo unspecified) [GLUTETHIMIDE] | > 30 µM | > 10 µM | > 10 µM | > 30 µM | > 10 µM | > 30 µM | > 30 µM
10 | CC(C)NCC(O)c1ccc(O)c(O)c1 (stereo unspecified) [ISOPROTERENOL] | > 30 µM | > 30 µM | 20.3 µM | > 30 µM | > 30 µM | > 10 µM | > 10 µM
11 | O=[N+]([O-])c1ccc(O)c2ncccc12 [NITROXOLINE] | 3.2 µM | – | – | 5.5 µM | – | > 30 µM | 6.6 µM
12 | CNCc1ccc(-c2[nH]c3cc(F)cc4c3c2CCNC4=O)cc1 [RUCAPARIB] | 10 µM | > 30 µM | – | – | > 30 µM | – | –
13 | Cc1cc2cc3c(C)cc(=O)oc3c(C)c2o1 [TRIOXSALEN] | – | > 10 µM | > 30 µM | > 30 µM | > 10 µM | > 10 µM | > 30 µM
